# Test results taken from patent publication US8327467B2, “Anthranilic acid derivative or salt thereof” (Toyama Chemical Co., Ltd., priority 2005, dated 2012).
# Counter-ions that a name gives are not always drawn.
# Test system: MMP-13
# Experiment: MMP-13 production inhibition test
# Format: cell-based
# Conditions: 30 μmol/L; human cartilage derived cell line SW1353, IL-1β 10 ng/mL, 16 hours after stimulation, MMP-13 in culture supernatant by ELISA; read-out: Inhibition rate (%) at 30 μmol/L
# Procedure: MMP-13 Production Inhibition Test
# 6.8×10^3 human cartilage derived cell line SW1353 cells were suspended in 100 μL of Dulbecco modified Eagle's medium supplemented with 10% fetal calf serum, plated on 96-well plates and cultured for 3 days. After the culture medium was changed to Dulbecco modified Eagle's medium containing 0.2% lactalbumin hydrolysate and the cells were cultured for 6 hours, test compounds were added and then IL-1β was added to obtain the final concentration of 10 ng/mL 1 hour later. 16 hours after the stimulation, supernatant was collected and the amount of MMP-13 in the culture supernatant was determined with an ELISA kit (Amersham). The inhibition rate was calculated from the amount of MMP-13 in the presence of a test compound assuming that the amount of MMP-13 was 100% in the absence of the test compound.
row,SMILES,inhibition at 30 µM [%]
1,"COc1ccccc1-c1ccc(C(=O)O)c(Nc2ccc(F)cc2)c1 [Example 3, 2-(4-fluoroanilino)-4-(2-methoxyphenyl)benzoic acid]",53
2,"O=C(O)c1ccc(-c2ccc3c(c2)OCO3)cc1Nc1ccc(F)cc1 [Example 7, 4-(Benzo-1,3-dioxol-5-yl)-2-(4-fluoroanilino)benzoic acid]",95
3,"COc1ccc(-c2ccc(C(=O)O)c(Nc3ccc(F)cc3)c2)cc1 [Example 9, 2-(4-fluoroanilino)-4-(4-methoxyphenyl)benzoic acid]",93
4,"CS(=O)(=O)c1ccc(-c2ccc(C(=O)O)c(Nc3ccc(F)cc3)c2)cc1 [Example 11, 2-(4-fluoroanilino)-4-(4-(methanesulfonyl)phenyl)benzoic acid]",62
5,"CS(=O)(=O)Nc1ccc(-c2ccc(C(=O)O)c(Nc3ccc(F)cc3)c2)cc1 [Example 12, 2-(4-Fluoroanilino)-4-(4-(methanesulfonamido)phenyl)benzoic acid]",75
6,"O=C(O)c1ccc(-c2ccc3[nH]ccc3c2)cc1Nc1ccc(F)cc1 [Example 13, 2-(4-Fluoroanilino)-4-(1H-indol-5-yl)benzoic acid]",95
7,"CC(=O)c1ccc(-c2ccc(C(=O)O)c(Nc3ccc(F)cc3)c2)cc1 [Example 15, 4-(4-Acetylphenyl)-2-(4-fluoroanilino)benzoic acid]",91
8,"O=C(O)c1ccc(-c2ccccc2)cc1Nc1ccc(F)cc1 [Example 37, 2-(4-fluoroanilino)-4-phenylbenzoic acid]",92
9,"O=C(O)c1ccc(Oc2ccccc2)cc1Nc1ccc2c(c1)OCO2 [Example 43, 2-((Benzo-1,3-dioxol-5-yl)amino)-4-phenoxybenzoic acid]",93
10,"COc1ccc(Nc2cc(Oc3ccccc3)ccc2C(=O)O)c(OC)c1 [Example 45, 2-(2,4-Dimethoxyanilino)-4-phenoxybenzoic acid]",73
11,"O=C(O)c1ccc(Oc2ccccc2)cc1Nc1ccccc1 [Example 46, 2-Anilino-4-phenoxybenzoic acid]",93
12,"O=C(O)c1ccc(Oc2ccccc2)cc1NC1CCCCC1 [Example 48, 2-(cyclohexylamino)-4-phenoxybenzoic acid]",85
13,"O=C(O)c1ccc(Oc2ccccc2)cc1NCc1ccc(F)cc1 [Example 49, 2-(4-Fluorobenzylamino)-4-phenoxybenzoic acid]",85
14,"O=C(O)c1ccc(Oc2ccccc2)cc1NCc1ccccc1 [Example 52, 2-(benzylamino)-4-phenoxybenzoic acid]",77
15,"O=C(O)c1ccc(Nc2ccccc2)cc1Nc1ccc(F)cc1 [Example 63, 4-anilino-2-(4-fluoroanilino)benzoic acid]",67
16,"O=C(O)c1ccc(NCc2ccccc2)cc1Nc1ccc(F)cc1 [Example 67, 4-(benzylamino)-2-(4-fluoroanilino)benzoic acid]",67
17,"O=C(O)c1ccc(NCCCc2ccccc2)cc1Nc1ccc(F)cc1 [Example 69, 2-(4-Fluoroanilino)-4-((3-phenylpropyl)amino)benzoic acid]",94
18,"O=C(O)c1ccc(CCCc2ccccc2)cc1Nc1ccc(F)cc1 [Example 81, 2-(4-fluoroanilino)-4-(3-phenylpropyl)benzoic acid]",97
19,"O=C(O)c1ccc(NC(=O)c2csc3ccccc23)cc1Nc1ccc(F)cc1 [Example 87, 4-(benzothiophene-3-carboxamido)-2-(4-fluoroanilino)benzoic acid]",97
20,"O=C(O)c1ccc(NS(=O)(=O)c2ccccc2)cc1Nc1ccc(F)cc1 [Example 91, 4-(Benzenesulfonamido)-2-(4-fluoroanilino)benzoic acid]",53
21,"O=C(O)c1ccc(/C=C/c2cccc(O)c2)cc1Nc1ccc(F)cc1 [Example 126, 2-(4-fluoroanilino)-4-((E)-2-(3-hydroxyphenyl)vinyl)benzoic acid]",94
22,"O=C(O)c1ccc(/C=C/c2ccc(F)cc2)cc1Nc1ccc(F)cc1 [Example 132, 2-(4-Fluoroanilino)-4-((E)-2-(4-fluorophenyl)vinyl)benzoic acid]",95
23,"O=C(O)c1ccc(/C=C/c2ccc3c(c2)OCO3)cc1Nc1ccc(F)cc1 [Example 140, 4-((E)-2-(Benzo-1,3-dioxol-5-yl)vinyl)-2-(4-fluoroanilino)benzoic acid]",93
24,"COc1ccc(CCc2ccc(C(=O)O)c(Nc3ccc(F)cc3)c2)cc1 [Example 160, 2-(4-Fluoroanilino)-4-(2-(4-methoxyphenyl)ethyl)benzoic acid]",93

row,SMILES,inhibition at 30 µM [%]
1,"COc1cccc(CCc2ccc(C(=O)O)c(Nc3ccc(F)cc3)c2)c1 [Example 166, 2-(4-Fluoroanilino)-4-(2-(3-methoxyphenyl)ethyl)benzoic acid]",92
2,"O=C(O)c1ccc(CCc2ccccc2)cc1Nc1ccccc1C(F)(F)F [Example 169, 4-phenethyl-2-(2-(trifluoromethyl)anilino)benzoic acid]",97
3,"O=C(O)c1ccc(CCc2ccccc2)cc1Nc1ccc(C(F)(F)F)cc1 [Example 170, 4-Phenethyl-2-(4-(trifluoromethyl)anilino)benzoic acid]",97
4,"Cc1ccc(Nc2cc(CCc3ccccc3)ccc2C(=O)O)c(C)c1 [Example 172, 2-(2,4-Dimethylanilino)-4-phenethylbenzoic acid]",97
5,"Cc1cccc(Nc2cc(CCc3ccccc3)ccc2C(=O)O)c1C [Example 173, 2-(2,3-Dimethylanilino)-4-phenethylbenzoic acid]",97
6,"COc1ccccc1Nc1cc(CCc2ccccc2)ccc1C(=O)O [Example 181, 2-(2-Methoxyanilino)-4-phenethylbenzoic acid]",97
7,"COc1ccc(Nc2cc(-c3ccccc3)ccc2C(=O)O)cc1 [Example 185, 2-(4-methoxyanilino)-4-phenylbenzoic acid]",79
8,"O=C(O)c1ccc(-c2ccccc2)cc1Nc1ccc(OC(F)(F)F)cc1 [Example 190, 4-Phenyl-2-(4-(trifluoromethoxy)anilino)benzoic acid]",97
9,"O=C(O)c1ccc(-c2ccccc2)cc1Nc1cccc(OC(F)(F)F)c1 [Example 191, 4-Phenyl-2-(3-(trifluoromethoxy)anilino)benzoic acid]",97
10,"O=C(O)c1ccc(CCc2ccccc2)cc1Nc1ccccc1OC(F)(F)F [Example 199, 4-Phenethyl-2-(2-(trifluoromethoxy)anilino)benzoic acid]",97
11,"O=C(O)c1ccc(CCc2ccccc2)cc1Nc1cccc(Cl)c1 [Example 200, 2-(3-chloroanilino)-4-phenethylbenzoic acid]",97
12,"COc1ccc(-c2ccc(C(=O)O)c(Nc3ccc(F)cc3)c2)cc1OC [Example 209, 4-(3,4-Dimethoxyphenyl)-2-(4-fluoroanilino)benzoic acid]",82
13,"Cc1ccc(-c2ccc(C(=O)O)c(Nc3ccc(F)cc3)c2)cc1C [Example 214, 4-(3,4-Dimethylphenyl)-2-(4-fluoroanilino)benzoic acid]",98
14,"O=C(O)c1ccc(-c2ccccc2OC(F)(F)F)cc1Nc1ccc(F)cc1 [Example 220, 2-(4-Fluoroanilino)-4-(2-(trifluoromethoxy)phenyl)benzoic acid]",98
15,"O=C(O)c1ccc(-c2ccc(OC(F)(F)F)cc2)cc1Nc1ccc(F)cc1 [Example 222, 2-(4-Fluoroanilino)-4-(4-(trifluoromethoxy)phenyl)benzoic acid]",98
16,"O=C(O)c1ccc(-c2ccc3occc3c2)cc1Nc1ccc(F)cc1 [Example 225, 4-(Benzofuran-5-yl)-2-(4-fluoroanilino)benzoic acid]",98
17,"O=C(O)c1ccc(-c2cccc3[nH]ccc23)cc1Nc1ccc(F)cc1 [Example 234, 2-(4-fluoroanilino)-4-(1H-indol-4-yl)benzoic acid]",97
18,"O=C(O)c1ccc(N2CCc3ccccc32)cc1Nc1ccc(F)cc1 [Example 243, 2-(4-fluoroanilino)-4-(indolin-1-yl)benzoic acid]",97
19,"O=C(O)c1ccc(-n2cnc3ccccc32)cc1Nc1ccc(F)cc1 [Example 248, 4-(1H-benzimidazol-1-yl)-2-(4-fluoroanilino)benzoic acid trifluoroacetate]",84
20,"Cc1ccc(CCc2ccc(C(=O)O)c(Nc3ccc(F)cc3)c2)cc1 [Example 252, 2-(4-Fluoroanilino)-4-(2-(4-methylphenyl)ethyl)benzoic acid]",96
21,"O=C(O)c1ccc(CCc2ccc(OC(F)(F)F)cc2)cc1Nc1ccc(F)cc1 [Example 259, 2-(4-fluoroanilino)-4-(2-(4-(trifluoromethoxy)phenyl)ethyl)benzoic acid]",96
22,"CC(=O)Nc1cccc(CCc2ccc(C(=O)O)c(Nc3ccc(F)cc3)c2)c1 [Example 262, 4-(2-(3-Acetamidophenyl)ethyl)-2-(4-fluoroanilino)benzoic acid]",80
23,"O=C(O)c1ccc(-c2cccc(Cl)c2)cc1Nc1cccc(O)c1 [Example 271, 4-(3-chlorophenyl)-2-((3-hydroxyphenyl)amino)benzoic acid]",97
24,"Cc1ccccc1Nc1cc(-c2ccc(NS(C)(=O)=O)cc2)ccc1C(=O)O [Example 273, 4-(4-(methanesulfonamido)phenyl)-2-(2-methylanilino)benzoic acid]",83
